Measured values reported in US20040102633A1, “Novel compounds” (priority 2000, published 2004).
Where a name gives a salt, the structure may show the parent alone.

| melting point | SMILES |
| --- | --- |
| 196 °C (dec.) | CC[C@H](NC(=O)c1c(CN2CCC(N3CCCCC3)CC2)c(-c2ccccc2)nc2cc(OCC(=O)O)ccc12)c1ccccc1 (as salt: hydrochloride) [Example 17, [3-[1,4′]Bipiperidinyl-1′-ylmethyl-2-phenyl-4((S)-1-phenyl-propylcarbamoyl)-quinolin-7-yloxy]-acetic Acid Dihydrochloride] |
| 218 to 220 °C | CC[C@H](NC(=O)c1c(CN2CCC(N3CCCCC3)CC2)c(-c2ccccc2)nc2cc(OCC(N)=O)ccc12)c1ccccc1 (as salt: hydrochloride) [Example 20, 3-[1,4′]Bipiperidinyl-1′-ylmethyl-7-carbamoylmethoxy-2-phenyl-quinoline-4-carboxylic Acid ((S)-1-phenyl-propyl)-amide Dihydrochloride] |
| 140 to 145 °C | C[C@H](NC(=O)c1c(CN2CCC(N)CC2)c(-c2ccccc2)nc2ccccc12)C1CCCCC1 [Example 6, 3-(4-Amino-piperidin-1-ylmethyl)-2-phenyl-quinoline-4-carboxylic Acid ((S)-1-cyclohexyl-ethyl)-amide] |
| 118 to 119 °C | C[C@H](NC(=O)c1c(CN2CCC(N)CC2)c(-c2ccccc2)nc2ccccc12)c1ccccc1 [Example 7, 3-(4-Amino-piperidin-1-ylmethyl)-2-phenyl-quinoline-4-carboxylic Acid ((S)-1-phenyl-ethyl)-amide] |
| 124 to 125 °C | C[C@H](NC(=O)c1c(CN2CCC(N3CCCCC3=O)CC2)c(-c2ccccc2)nc2ccccc12)c1ccccc1 [Example 11, 3-(2-Oxo-[1,4′]bipiperidinyl-1′-ylmethyl)-2-phenyl-quinoline-4-carboxylic Acid ((S)-1-phenyl-ethyl)-amide] |
| 120 to 125 °C | C[C@H](NC(=O)c1c(CN2CCC(N3CCCC3=O)CC2)c(-c2ccccc2)nc2ccccc12)c1ccccc1 [Example 12, 3-[4-(2-Oxo-pyrrolidin-1-yl)-piperidin-1-ylmethyl]-2-phenyl-quinoline-4-carboxylic Acid ((S)-1-phenyl-ethyl)-amide] |
| 104 to 105 °C | CCOC(=O)C1CCCN(C2CCN(Cc3c(-c4ccccc4)nc4ccccc4c3C(=O)N[C@@H](C)C3CCCCC3)CC2)C1 (stereo partly drawn) [Example 13, 1′-[4-((S)-1-Cyclohexyl-ethylcarbamoyl)-2-phenyl-quinolin-3-ylmethyl]-[1,4′]bipiperidinyl-3-carboxylic Acid Ethyl Ester] |
| 160 to 165 °C | C[C@H](NC(=O)c1c(CN2CCC(N3CCCC(C(=O)O)C3)CC2)c(-c2ccccc2)nc2ccccc12)C1CCCCC1 (stereo partly drawn) [Example 14, 1′-[4-((S)-1-Cyclohexyl-ethylcarbamoyl)-2-phenyl-quinolin-3-ylmethyl]-[1,4′]bipiperidinyl-3-carboxylic Acid] |
| 177.9 to 178 °C | C[C@H](NC(=O)c1c(CN2CCC(N3CCCCC3)CC2)c(-c2ccccc2)nc2cc(O)ccc12)C1CCCCC1 [Example 15, 3-[1,4′]Bipiperidinyl-1′-ylmethyl-7-hydroxy-2-phenyl-quinoline-4-carboxylic Acid ((S)-1-cyclohexyl-ethyl)-amide] |
| 101 to 104 °C | CCOC(=O)COc1ccc2c(C(=O)N[C@@H](CC)c3ccccc3)c(CN3CCC(N4CCCCC4)CC3)c(-c3ccccc3)nc2c1 [Example 16, [3-[1,4′]Bipiperidinyl-1′-ylmethyl-2-phenyl-4-((S)-1-phenyl-propylcarbamoyl)-quinolin-7-yloxy]-acetic Acid Ethyl Ester] |
| 99.6 to 99.7 °C | C[C@H](NC(=O)c1c(CN2CCC(N3CCCCC3)CC2)c(-c2ccccc2)nc2cc(O)ccc12)c1ccccc1 [Example 18, 3-[1,4′]Bipiperidinyl-1′-ylmethyl-7-hydroxy-2-phenyl-quin line-4-carboxylic Acid ((S)-1-phenyl-ethyl)-amide] |
| 118 to 122 °C | CC[C@H](NC(=O)c1c(CN2CCC(N3CCCCC3)CC2)c(-c2ccccc2)nc2cc(OCCO)ccc12)c1ccccc1 [Example 19, 3-[1,4′]Bipiperidinyl-1′-ylmethyl-7-(2-hydroxy-ethoxy)-2-phenyl-quinoline-4-carboxylic acid ((S)-1-phenyl-propyl)-amide] |
| 200 to 204 °C (dec.) | CC(C)[C@H](NC(=O)c1c(CN2CCC(N3CCCCC3)CC2)c(-c2ccccc2)nc2cc(O)ccc12)c1ccccc1 [Example 21, 3-[1,4′]Bipiperidinyl-1′-ylmethyl-7-hydroxy-2-phenyl-quinoline-4-carboxylic Acid ((S)-2-methyl-1-phenyl-propyl)-amide] |
| 113 to 116 °C | COc1ccc2c(C(=O)N[C@H](c3ccccc3)C(C)C)c(CN3CCC(N4CCCCC4)CC3)c(-c3ccccc3)nc2c1 [Example 22, 3-[1,4′]Bipiperidinyl-1′-ylmethyl-7-methoxy-2-phenyl-quinoline-4-carboxylic Acid ((S)-2-methyl-1-phenyl-propyl)-amide] |
| 152 to 154 °C | C[C@H](NC(=O)c1c(CN2CCC(N3CCCCC3)CC2)c(-c2ccccc2)nc2cc(Cl)ccc12)C1CCCCC1 [Example 24, 3-[1,4′]Bipiperidinyl-1′-ylmethyl-7-chloro-2-phenyl-quinoline-4-carboxylic acid ((S)-1-cyclohexyl-ethyl)-amide] |
| 161 to 163 °C | C[C@H](NC(=O)c1c(CN2CCC(N3CCCCC3)CC2)c(-c2ccccc2)nc2cc(F)ccc12)C1CCCCC1 [Example 25, 3-[1,4′]Bipiperidinyl-1′-ylmethyl-7-fluoro-2-phenyl-quinoline-4-carboxylic Acid ((S)-1-cyclohexyl-ethyl)-amide] |
| 113 °C | C[C@H](NC(=O)c1c(CN2CCC(N3CCCCC3)CC2)c(-c2ccccc2)nc2c(F)cccc12)C1CCCCC1 [Example 26, 3-[1,4′]Bipiperidinyl-1′-ylmethyl-8-fluoro-2-phenyl-quinoline-4-carboxylic Acid ((S)-1-cyclohexyl-ethyl)-amide] |
| 165 to 166 °C | C[C@H](NC(=O)c1c(CN2CCC(N3CCCCC3)CC2)c(-c2cccs2)nc2ccccc12)C1CCCCC1 [Example 27, 3-[1,4′]Bipiperidinyl-1-ylmethyl-2-thiophen-2-yl-quinoline-4-carboxylic Acid ((S)-1-cyclohexyl-ethyl)-amide] |
| 174 to 175 °C | C[C@H](NC(=O)c1c(CN2CCC(N3CCCCC3)CC2)c(-c2ccccc2)nc2ccc(F)cc12)C1CCCCC1 [Example 28, 3-[1,4′]Bipiperidinyl-1′-ylmethyl-6-fluoro-2-phenyl-quinoline-4-carboxylic Acid ((S)-1-cyclohexyl-ethyl)-amide] |
| 151 to 153 °C | C[C@H](NC(=O)c1c(CN2CCC(N3CCCCC3)CC2)c(-c2ccc(F)cc2)nc2ccccc12)C1CCCCC1 [Example 29, 3-[1,4′]Bipiperidinyl-1′-ylmethyl-2-(4-fluoro-phenyl)-quinoline-4-carboxylic Acid ((S)-1-cyclohexyl-ethyl)-amide] |
| 138 to 140 °C | C[C@H](NC(=O)c1c(CN2CCC(N3CCCCC3)CC2)c(-c2ccc(C(F)(F)F)cc2)nc2ccccc12)C1CCCCC1 [Example 30, 3-[1,4′]Bipiperidinyl-1′-ylmethyl-2-(4-trifluoromethyl-phenyl) -quinoline-4-carboxylic Acid ((S)-1-cyclohexyl-ethyl)-amide] |
